Reference: patent US20100190849A1, “Novel Clerodanes and Methods for Repelling Arthropods” (priority 2006, published 2010)
Marks after values point to notes of the source that are not given here.

System: Anopheles stephensi
Assay: K & D module mosquito anti-biting (repellent) bioassay
Format: in vivo
Details: 25 nmol compound/cm^2 cloth; for Proportion Not Biting: Exp. 7, 56 replicates; for repellent activity (in words): Experiment 7
Text: Insects: Ae. aegypti(L.) (red eye Liverpool strain) and An. stephensi Liston used in the study were from colonies maintained at the Walter Reed Army Institute of Research, Silver Spring, Md. The insects were reared by feeding larvae ground tropical fish flakes (Tetramin Tropical Fish Flakes, Tetra Sales, Blacksburg, Va., www.tetra-fish.com)(Gerberg, E. j., et al., Manual for mosquito rearing and experimental techniques. Amer. Mosq. Control Assoc. Bull. No. 5 (revised), 1994, AMCA. inc., Lake Charles, La.). Adults were maintained in a photoperiod of 12:12 (L:D) h at 27° C. and 80% RH with cotton pads moistened with 10% aqueous sucrose solution. Mated females were 5-15 d old when they were used in bioassays. Ae. aegypti females had access only to water 24 h and neither food nor water for another 24 h before testing. An. stephensi females were provided with water alone 24 h before testing.
Mosquito Bioassay Methods: Experiment were conducted by using, a six-celled in vitro Klun & Debboun (K & D) module bioassay system developed by klun et al. (Klum J. A., et al., Journal of the American Mosquito Control Association. 21: 64-70 (2005)) for quantitative, evaluation of mosquito-repellent (anti-biting) properties of candidate repellent compounds for human use.
Plant extracts, fractions, or isolated pure plant derived compounds in 95% ethanol solution were each randomly applied to six-4×5 cm areas of organdy cloth and positioned over the membrane-covered blood. A replicate consisted of six treatments: four test chemicals or extract fractions, 95% ethanol treated cloth as control and unfractionated plant extract or a standard repellent compound, (1S, 2′S)-2-methylpiperidinyl-3-cyclohexen-1-carboxamide (SS220) at 25 nmol/cm^2 cloth. The 25 nmol SS220/cm^2 cloth dose was used as a standard, because it was known from human volunteer and in vitro assays to consistently suppress mosquito biting by 80% or more compared to controls in replicated assays (Klun, J. A., et al., Journal of the American Mosquito Control Association, 21: 64-70 (2005)). […] Routinely, a six-celled K & D module containing five mosquitoes/cell was positioned over cloth treatments covering the six blood-membrane wells, and trap doors of the K&D modules were opened to expose the treatments to the sets of mosquitoes. After a 3 minute exposure, the number of mosquitoes biting through cloth treatments in each cell was recorded and mosquitoes were prodded back into the cells. In Experiment 8, we retained all mosquitoes in their respective K&D module cells, each fitted with a water-moist piece of cotton, and observed the mosquitoes for total mosquito toxic knockdown at 6 min, 1 hr, and 24 hr post-treatment exposure. Experiments were replicated 12, 18, 32, or 56 times. Thus, 60, 90, 160. or 280 mosquitoes were tested against each treatment depending on the experiment, and the proportion of mosquitoes not biting for each treatment was calculated. For each experiment, conducted in different time periods, logistic regression was used to make two sets of one degree-of-freedom contrasts (t-tests): treatments vs. control and treatments vs. SS220 for anti-biting activity within each experiment. The level of significance was set at P=0.05. In all, we conducted 8 biological experiments, and all experiments used Ae. aegypti as the test mosquito with exception of Experiment 7 which used An. stephensi.
Experiments 6 and 7: These experiments compared the anti-biting activities of SS-220, and plant-isolated callicarpenal, humulene epoxide II, intermedeol and spathulenol at 25 nmol compound/cm^2 cloth versus control against Ae. aegypti and An. stephensi, respectively. Experiment 6 was replicated 32 times and 7 had 56 replicates

SMILES	Proportion Not Biting	repellent activity (in words)
CC1=CCC[C@@H]2[C@@](C)(CC=O)[C@H](C)CC[C@@]12C [callicarpenal, 13,14,15,16-tetranorclerod-3-en-12-al]	0.75^c	as effective as SS220
C=C(C)C1CCC2(C)CCCC(C)(O)C2C1 [intermedeol, (4S,5S,7R,10S)-eudesm-11-en-4-ol]	0.72^c	as effective as SS220
